Laboratory results: patent US20080234262A1 (Wyeth, priority 2007, published 2008)

How the values were obtained:
PI3K = PI3K (Homo sapiens, UniProt P42336); experiment: Fluorescence polarization assay for PI3K; format: biochemical; conditions: PI3Kα; read-out: PI3Kα IC50;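 further: PI3K kinase reaction on PIP2 with ATP, 30-60 min, product sensed by GST-GRP with red probe in fluorescence polarization (mP), controls without enzyme and at zero time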
prostate line LNCap = experiment: In vitro cell culture growth assay (MTS), LNCap; format: cell-based, human; conditions: LNCap cells, three days after drug treatment
breast line MDA468 = experiment: In vitro cell culture growth assay (MTS), MDA468; format: cell-based, human; conditions: MDA468 cells, three days after drug treatment
Method in brief: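 MDA468 or LNCap cells received inhibitors one day after plating and were grown for three days. Viable cell density read by MTS conversion, absorbance 490 nm, expressed as percent of control growth versus vehicle-treated cells on the same plate.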

Sequence of PI3K (P42336 whole entry): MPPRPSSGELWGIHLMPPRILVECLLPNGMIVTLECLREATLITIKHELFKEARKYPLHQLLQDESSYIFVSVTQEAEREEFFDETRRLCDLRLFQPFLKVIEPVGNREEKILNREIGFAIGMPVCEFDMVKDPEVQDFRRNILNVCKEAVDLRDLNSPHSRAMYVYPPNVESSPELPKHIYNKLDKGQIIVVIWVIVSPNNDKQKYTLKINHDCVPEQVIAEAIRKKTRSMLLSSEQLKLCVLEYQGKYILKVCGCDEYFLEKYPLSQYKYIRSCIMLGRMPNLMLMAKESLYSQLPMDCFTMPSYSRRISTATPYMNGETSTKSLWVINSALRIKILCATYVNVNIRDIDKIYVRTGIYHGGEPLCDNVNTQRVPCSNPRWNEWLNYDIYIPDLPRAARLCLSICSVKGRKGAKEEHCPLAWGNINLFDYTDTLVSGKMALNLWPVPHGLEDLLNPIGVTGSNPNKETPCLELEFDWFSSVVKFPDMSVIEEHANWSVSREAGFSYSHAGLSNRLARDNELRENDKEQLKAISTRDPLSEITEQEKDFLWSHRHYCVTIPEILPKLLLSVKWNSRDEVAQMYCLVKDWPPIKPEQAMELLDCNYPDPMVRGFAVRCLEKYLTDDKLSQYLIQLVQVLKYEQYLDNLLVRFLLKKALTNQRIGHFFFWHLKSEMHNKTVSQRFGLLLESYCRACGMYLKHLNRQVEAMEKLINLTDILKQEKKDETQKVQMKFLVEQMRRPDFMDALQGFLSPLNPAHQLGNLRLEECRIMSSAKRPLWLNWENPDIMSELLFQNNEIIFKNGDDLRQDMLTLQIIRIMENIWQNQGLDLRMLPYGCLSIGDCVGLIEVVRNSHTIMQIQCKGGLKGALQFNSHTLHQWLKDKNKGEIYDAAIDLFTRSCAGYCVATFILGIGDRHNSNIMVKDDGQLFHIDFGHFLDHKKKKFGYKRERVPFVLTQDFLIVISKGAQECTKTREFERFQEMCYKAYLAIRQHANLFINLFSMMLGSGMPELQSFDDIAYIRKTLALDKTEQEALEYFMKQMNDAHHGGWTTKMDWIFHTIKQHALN
Sequence of PI3K (P27986 whole entry partner): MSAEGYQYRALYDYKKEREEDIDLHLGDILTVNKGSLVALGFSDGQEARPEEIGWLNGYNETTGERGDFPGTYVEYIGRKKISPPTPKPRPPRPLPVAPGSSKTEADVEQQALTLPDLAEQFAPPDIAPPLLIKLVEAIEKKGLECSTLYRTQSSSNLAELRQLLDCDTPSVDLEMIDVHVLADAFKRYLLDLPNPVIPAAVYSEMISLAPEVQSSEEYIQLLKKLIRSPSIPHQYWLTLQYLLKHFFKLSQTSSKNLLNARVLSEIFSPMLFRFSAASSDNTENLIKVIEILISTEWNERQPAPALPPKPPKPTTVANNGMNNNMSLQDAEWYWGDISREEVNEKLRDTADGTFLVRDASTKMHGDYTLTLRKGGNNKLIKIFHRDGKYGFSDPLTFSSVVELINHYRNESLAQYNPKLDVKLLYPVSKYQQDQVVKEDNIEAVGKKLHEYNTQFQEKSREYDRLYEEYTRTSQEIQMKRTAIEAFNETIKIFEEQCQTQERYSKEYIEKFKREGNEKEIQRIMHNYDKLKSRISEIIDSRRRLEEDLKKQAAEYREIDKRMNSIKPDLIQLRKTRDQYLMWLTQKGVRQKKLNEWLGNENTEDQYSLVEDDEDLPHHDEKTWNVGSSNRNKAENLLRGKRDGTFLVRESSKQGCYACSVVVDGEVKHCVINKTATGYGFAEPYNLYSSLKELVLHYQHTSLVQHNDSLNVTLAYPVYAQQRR

SMILES | IC50 (PI3K) | IC50 (prostate line LNCap; Homo sapiens, LNCaP, 72 h) | IC50 (breast line MDA468; Homo sapiens, 72 h) | IC50 (prostate line LNCap) | IC50 (breast line MDA468)
COC(=O)Nc1ccc(-c2nc(N3CCOCC3)c3cnn(C4CCN(C(=O)c5ccccn5)CC4)c3n2)cc1 [Example 441, methyl (4-{4-morpholin-4-yl-1-[1-(pyridin-2-ylcarbonyl)piperidin-4-yl]-1H-pyrazolo[3,4-d]pyrimidin-6-yl}phenyl)carbamate] | 1.92 µM | 0.2 µM | 0.6 µM |  | 
CNC(=O)Nc1ccc(-c2nc(N3CCOCC3)c3cnn(C4CCN(S(C)(=O)=O)CC4)c3n2)cc1 [Compound 759, 1-methyl-3-(4-{1-[1-(methylsulfonyl)piperidin-4-yl]-4-morpholin-4-yl-1H-pyrazolo[3,4-d]pyrimidin-6-yl}phenyl)urea] | 0.078 µM | 0.4 µM | 0.48 µM |  | 
c1ccc(N2CCC(n3ncc4c(N5CCOCC5)nc(-c5ccc6[nH]ccc6c5)nc43)CC2)nc1 [Compound 217, 6-(1H-indol-5-yl)-4-morpholin-4-yl-1-(1-pyridin-2-ylpiperidin-4-yl)-1H-pyrazolo[3,4-d]pyrimidine] | 1.4 µM | 1.2 µM | 1.9 µM |  | 
COC(=O)Nc1ccc(-c2nc(N3CCOCC3)c3cnn(C4CCN(C(=O)c5cccnc5)CC4)c3n2)cc1 [Example 213, methyl (4-{4-morpholin-4-yl-1-[1-(pyridin-3-ylcarbonyl)piperidin-4-yl]-1H-pyrazolo[3,4-d]pyrimidin-6-yl}phenyl)carbamate] | 0.514 µM | 0.355 µM | 1.2 µM |  | 
CNC(=O)Nc1ccc(-c2nc(N3CCOCC3)c3cnn(C4CCN(Cc5cccc(O)c5)CC4)c3n2)cc1 [Compound 642, 1-(4-{1-[1-(3-hydroxybenzyl)piperidin-4-yl]-4-morpholin-4-yl-1H-pyrazolo[3,4-d]pyrimidin-6-yl}phenyl)-3-methylurea] | 0.028 µM |  |  | 0.14 µM | 0.42 µM
CC(C)OC(=O)N1CCC(n2ncc3c(N4CCOCC4)nc(-c4ccc(NC(=O)Nc5ccncc5)cc4)nc32)CC1 [Compound 839, isopropyl 4-(4-morpholin-4-yl-6-{4-[(pyridin-4-ylcarbamoyl)amino]phenyl}-1H-pyrazolo[3,4-d]pyrimidin-1-yl)piperidine-1-carboxylate] | 0.037 µM | 0.027 µM | 0.068 µM |  | 
CNC(=O)Nc1ccc(-c2nc(N3CCOCC3)c3cnn(C4CCN(Cc5cccc(F)c5)CC4)c3n2)cc1 [Compound 428, 1-(4-{1-[1-(3-fluorobenzyl)piperidin-4-yl]-4-morpholin-4-yl-1H-pyrazolo[3,4-d]pyrimidin-6-yl}phenyl)-3-methylurea] | 0.03 µM | 0.027 µM | 0.2 µM |  | 
O=C(NO)Nc1ccc(-c2nc(N3CCOCC3)c3cnn(C4CCN(Cc5cccnc5)CC4)c3n2)cc1 [Compound 317, 1-hydroxy-3-(4-{4-morpholin-4-yl-1-[1-(pyridin-3-ylmethyl)piperidin-4-yl]-1H-pyrazolo[3,4-d]pyrimidin-6-yl}phenyl)urea] | 0.259 µM | 1.1 µM | 1.5 µM |  | 
CNC(=O)Nc1ccc(-c2nc(N3CCOCC3)c3cnn([C@H]4CCCNC4)c3n2)cc1 [Compound 873, 1-methyl-3-(4-{4-morpholin-4-yl-1-[(3S)-piperidin-3-yl]-1H-pyrazolo[3,4-d]pyrimidin-6-yl}phenyl)urea] | 0.074 µM | 0.41 µM | 0.73 µM |  | 
Oc1cccc(-c2nc(N3CCOCC3)c3cn[nH]c3n2)c1 [Example 204, 3-(4-morpholin-4-yl-1H-pyrazolo[3,4-d]pyrimidin-6-yl)phenol] | 0.026 µM | 2.5 µM | 8 µM |  | 
O=C(c1ccco1)N1CCC(n2ncc3c(N4CCOCC4)nc(-c4cccc(O)c4)nc32)CC1 [Example 22] | 0.031 µM | 0.3 µM | 0.9 µM |  | 
O=C(Nc1ccc(-c2nc(N3CCOCC3)c3cn[nH]c3n2)cc1)c1cccnc1 [Compound 278, N-[4-(4-morpholin-4-yl-1H-pyrazolo[3,4-d]pyrimidin-6-yl)phenyl]nicotinamide] | 1.17 µM | 7.2 µM | 60 µM |  | 
O=C(Nc1ccc(-c2nc(N3CCOCC3)c3cnn(C4CCNCC4)c3n2)cc1)Nc1ccccn1 [Compound 778, 1-[4-(4-morpholin-4-yl-1-piperidin-4-yl-1H-pyrazolo[3,4-d]pyrimidin-6-yl)phenyl]-3-pyridin-2-ylurea] | 0.154 µM | 1.3 µM | 1.6 µM |  | 
CNC(=O)Nc1ccc(-c2nc(N3CCOCC3)c3cnn(C4CCN(Cc5cnccc5OC)CC4)c3n2)cc1 [Example 391, 1-[4-(1-{1-[(4-methoxypyridin-3-yl)methyl]piperidin-4-yl}-4-morpholin-4-yl-1H-pyrazolo[3,4-d]pyrimidin-6-yl)phenyl]-3-methylurea] | 0.082 µM | 0.07 µM | 0.2 µM |  | 
COC(=O)Nc1ccc(-c2nc(N3CCOCC3)c3cnn(C4CCN(C(=O)N(C)C)CC4)c3n2)cc1 [Compound 808, methyl (4-{1-[1-(dimethylcarbamoyl)piperidin-4-yl]-4-morpholin-4-yl-1H-pyrazolo[3,4-d]pyrimidin-6-yl}phenyl)carbamate] | 2.62 µM | 0.43 µM | 0.69 µM |  | 
CNC(=O)Nc1ccc(-c2nc(N3CCOCC3)c3cnn(C4CCN(Cc5ccc(Cl)cc5)CC4)c3n2)cc1 [Example 394, 1-(4-{1-[1-(4-chlorobenzyl)piperidin-4-yl]-4-morpholin-4-yl-1H-pyrazolo[3,4-d]pyrimidin-6-yl}phenyl)-3-methylurea] | 0.018 µM | 0.06 µM | 0.3 µM |  | 
c1ccc(CN2CCC(n3ncc4c(N5CCOCC5)nc(-c5ccc6nonc6c5)nc43)CC2)cc1 [Compound 190] | 1.32 µM | 6.2 µM | 6 µM |  | 
CNC(=O)Nc1ccc(-c2nc(N3CCOCC3)c3cnn(C4CCN(C(=O)c5ccc(OC)cc5)CC4)c3n2)cc1 [Compound 609, 1-(4-{1-[1-(4-methoxybenzoyl)piperidin-4-yl]-4-morpholin-4-yl-1H-pyrazolo[3,4-d]pyrimidin-6-yl}phenyl)-3-methylurea] | 0.054 µM | 0.045 µM | 0.35 µM |  | 
O=C(Nc1ccc(-c2nc(N3CCOCC3)c3cnn(C4CCN(Cc5cccnc5)CC4)c3n2)cc1)Nc1ccsc1 [Compound 620, 1-(4-{4-morpholin-4-yl-1-[1-(pyridin-3-ylmethyl)piperidin-4-yl]-1H-pyrazolo[3,4-d]pyrimidin-6-yl}phenyl)-3-(3-thienyl)urea] | 0.01 µM | 0.034 µM | 0.13 µM |  | 
c1cc2cc(-c3nc(N4CCOCC4)c4cnn(CCN5CCCCC5)c4n3)ccc2[nH]1 [Compound 125] | 9.75 µM | 4.4 µM | 7.3 µM |  | 
c1cc2cc(-c3nc(N4CCOCC4)c4cnn(C5CCCCO5)c4n3)ccc2[nH]1 (stereo not drawn) [Compound 237, 6-(1H-indol-5-yl)-4-morpholin-4-yl-1-(tetrahydro-2H-pyran-2-yl)-1H-pyrazolo[3,4-d]pyrimidine] | 2.42 µM | 4.2 µM | 1 µM |  | 
Fc1ccc(CN2CCC(n3ncc4c(N5CCOCC5)nc(-c5ccc6[nH]ccc6c5)nc43)CC2)cn1 [Example 172, 1-{1-[(6-fluoropyridin-3-yl)methyl]piperidin-4-yl}-6-(1H-indol-5-yl)-4-morpholin-4-yl-1H-pyrazolo[3,4-d]pyrimidine] | 0.366 µM | 1 µM | 1.7 µM |  | 
CC(C)N1CCC(n2ncc3c(N4CCOCC4)nc(-c4ccc5[nH]ccc5c4)nc32)CC1 [Compound 238, 6-(1H-indol-5-yl)-1-(1-isopropylpiperidin-4-yl)-4-morpholin-4-yl-1H-pyrazolo[3,4-d]pyrimidine] | 3.75 µM | 2.5 µM | 2.9 µM |  | 
Nc1ncc(-c2nc(N3CCOCC3)c3cnn(C4CCN(C(=O)c5cccnc5)CC4)c3n2)cn1 [Example 215, 5-{4-morpholin-4-yl-1-[1-(pyridin-3-ylcarbonyl)piperidin-4-yl]-1H-pyrazolo[3,4-d]pyrimidin-6-yl}pyrimidin-2-amine] | 0.037 µM | 0.65 µM | 1.3 µM |  | 
CC(C)C(=O)N1CCC(n2ncc3c(N4CCOCC4)nc(-c4ccc(NC(=O)Nc5cccnc5)cc4)nc32)CC1 [Compound 828, 1-{4-[1-(1-isobutyrylpiperidin-4-yl)-4-morpholin-4-yl-1H-pyrazolo[3,4-d]pyrimidin-6-yl]phenyl}-3-pyridin-3-ylurea] | 0.05 µM | 0.12 µM | 0.33 µM |  | 
CNC(=O)Nc1ccc(-c2nc(N3CCOCC3)c3cnn(C4CCN(Cc5ccc(OC)nc5)CC4)c3n2)cc1 [Compound 574, 1-[4-(1-{1-[(6-methoxypyridin-3-yl)methyl]piperidin-4-yl}-4-morpholin-4-yl-1H-pyrazolo[3,4-d]pyrimidin-6-yl)phenyl]-3-methylurea] | 0.033 µM | < 0.027 µM | 0.7 µM |  | 
O=C(Nc1ccc(-c2nc(N3CCOCC3)c3cnn(CC(F)(F)F)c3n2)cc1)Nc1cccnc1 [Compound 792, 1-{4-[4-morpholin-4-yl-1-(2,2,2-trifluoroethyl)-1H-pyrazolo[3,4-d]pyrimidin-6-yl]phenyl}-3-pyridin-3-ylurea] | 0.01 µM | < 0.027 µM | < 0.027 µM |  | 
COc1cc(-c2nc(N3CCOCC3)c3cnn(C4CCN(Cc5ccccc5)CC4)c3n2)ccc1NC(C)=O [Compound 182] | 3.93 µM | 5 µM | 4.1 µM |  | 
CNC(=O)Nc1ccc(-c2nc(N3CCOCC3)c3cnn(C4CCN(CC(=O)c5ccccc5)CC4)c3n2)cc1 [Example 333, 1-methyl-3-(4-{4-morpholin-4-yl-1-[1-(2-oxo-2-phenylethyl)piperidin-4-yl]-1H-pyrazolo[3,4-d]pyrimidin-6-yl}phenyl)urea] | 0.023 µM | 0.027 µM | 0.2 µM |  | 
